# Data from patent US8871777B2, “Phenylpyrimidone compounds, the pharmaceutical compositions, preparation methods and uses thereof” (Topharman Shanghai Co., Ltd., priority 2008, dated 2014).
# Molecular target: T1, human blood platelet PDE5 (Homo sapiens, UniProt O76074)
# T1 construct: obtained by suitably treating various tissues and separating the enzyme with FPLC; from tissue; host or cells: human blood platelets
# Assay: PDE5 enzyme inhibition activity test (scintillation proximity)
# Type: biochemical
# Conditions: PDE5 table
# Method: More specifically, PDE5 and PDE3 were obtained from human blood platelet, and PDE6 was separated from bovine retina. Upon enzyme was separated out, the enzyme inhibition activity test would be carried out immediately. The said enzyme inhibition activity test was performed by directly detecting the scintillation proximity of AMP/GMP using TRKQ7100 and TRKQ7090 kits, which was generally as follows. In the presence of different concentrations of inhibitor and a small amount of substrate, 10 μl of buffer (50 mM Tris/HCl PH 7.5, 8.3 mM MgCl2, 1.7 mM EGTA) was added, and then water was added to a final volume of 100 μl. The reaction was initiated with a fixed amount of enzyme, incubated at 30° C. for 30 min, and then quenched with 50 μl of yttrium silicate beads comprising zinc sulphate. After shaken for 20 min, the reaction mixture was put in dark and settled for 30 min, and then readed on a BECKMAN LS6500 MULTI-PURPOSE SCINTILLATION COUNTER.
row,IC50 [nM],SMILES
1,8.63,"CCCOc1ccc(C2OC(CO)C(O)C(O)C2O)cc1-c1nc(CC)c(CC)c(=O)[nH]1 (stereo not shown) [Example 218, 5,6-Diethyl-2-(5-(tetrahydro-3,4,5-trihydroxy-6-(hydroxymethyl)-2H-pyran-2-yl)-2-n-propoxyphenyl)pyrimid-4(3H)-one]"
2,2.8,"CCCOc1ccc(C(=O)NCCS(=O)(=O)N2CCN(C)CC2)cc1-c1nc(CC)c(CC)c(=O)[nH]1 [Example 213, 3-(4,5-diethyl-1,6-dihydro-6-oxopyrimidin-2-yl)-N-(4-methyl-1-piperazinylsulfonylethyl)-4-n-propoxybenzamide]"
3,3.29,"CCCOc1ccc(-c2nc(CC)c(CC)c(=O)[nH]2)cc1-c1nc(CC)c(CC)c(=O)[nH]1 [Example 87, 2,2′-(4-n-Propoxy-1,3-phenylene)bis(5,6-diethylpyrimid-4(3H)-one)]"
4,0.9,CCCOc1ccc(C(=O)NC2C(O)OC(CO)C(O)C2O)cc1-c1nc(CC)c(CC)c(=O)[nH]1 (stereo not shown) [Example 211]
5,1.8,"CCCOc1ccc(C(=O)NC(CCCNC(=N)N)C(=O)O)cc1-c1nc(CC)c(CC)c(=O)[nH]1 (stereo not shown) [Example 149, 2-(3-(4,5-diethyl-1,6-dihydro-6-oxopyrimidin-2-yl)-4-n-propoxybenzamido)-5-guanidylvaleric acid]"
6,0.54,"CCCOc1ccc(C(=O)NC(C)C(=O)OC)cc1-c1nc(CC)c(CC)c(=O)[nH]1 (stereo not shown) [Example 151, methyl 2-(3-(4,5-diethyl-1,6-dihydro-6-oxopyrimidin-2-yl)-4-n-propoxybenzamido)propionate]"
7,6.31,"CCCOc1ccc(S(=O)(=O)NC(CCCN)C(=O)O)cc1-c1nc(CC)c(CC)c(=O)[nH]1 (stereo not shown) [Example 119, 2-(N-(3-(4,5-diethyl-1,6-dihydro-6-oxopyrimidin-2-yl)-4-n-propoxyphenyl)sulfonyl)amino-5-aminovaleric acid]"
8,0.64,"CCCOc1ccc(C(=O)NC(CCCNC(N)=O)C(=O)O)cc1-c1nc(CC)c(CC)c(=O)[nH]1 (stereo not shown) [Example 209, 2-(3-(4,5-diethyl-1,6-dihydro-6-oxopyrimidin-2-yl)-4-n-propoxybenzamido)-5-ureavaleric acid]"
9,0.83,"CCCOc1ccc(C(=O)NCCCS(=O)(=O)N2CCN(C)CC2)cc1-c1nc(CC)c(CC)c(=O)[nH]1 [Example 216, 3-(4,5-diethyl-1,6-dihydro-6-oxopyrimidin-2-yl)-N-(4-methyl-1-piperazinylsulfonylpropyl)-4-n-propoxybenzamide]"
10,0.79,"CCCOc1ccc(C(=O)NCCS(N)(=O)=O)cc1-c1nc(CC)c(CC)c(=O)[nH]1 [Example 212, 2-(3-(4,5-diethyl-1,6-dihydro-6-oxopyrimidin-2-yl)-4-n-propoxybenzamido)ethylsulphonamide]"
11,3.69,"CCCOc1ccc(S(=O)(=O)NC2C(O)OC(CO)C(O)C2O)cc1-c1nc(CC)c(CC)c(=O)[nH]1 (stereo not shown) [Example 208, 5,6-Diethyl-2-(2-n-propoxy-5-((tetrahydro-2,4,5-trihydroxy-6-(hydroxymethyl)-2H-pyran-3-ylamino)sulfonyl)phenyl]pyrimid-4(3H)-one]"
12,0.76,"CCCOc1ccc(S(=O)(=O)NC(CCCNC(N)=O)C(=O)O)cc1-c1nc(CC)c(CC)c(=O)[nH]1 (stereo not shown) [Example 118, 2-(N-(3-(4,5-diethyl-1,6-dihydro-6-oxopyrimidin-2-y1)-4-n-propoxyphenyl)sulfonyl)amino-5-ureavaleric acid]"
13,0.88,"CCCOc1ccc(C(=O)NCCCS(N)(=O)=O)cc1-c1nc(CC)c(CC)c(=O)[nH]1 [Example 215, 3-(3-(4,5-diethyl-1,6-dihydro-6-oxopyrimidin-2-yl)-4-n-propoxybenzamido)propylsulphonamide]"
14,6.23,"CCCOc1ccc(C(=O)NC(CCCN)C(=O)O)cc1-c1nc(CC)c(CC)c(=O)[nH]1 (stereo not shown) [Example 210, 2-(3-(4,5-diethyl-1,6-dihydro-6-oxopyrimidin-2-yl)-4-n-propoxybenzamido)-5-aminovaleric acid]"
15,0.54,"CCCOc1ccc(C(=O)NC(C)C(N)=O)cc1-c1nc(CC)c(CC)c(=O)[nH]1 (stereo not shown) [Example 155, N-(1-aminoformylethyl)-3-(4,5-diethyl-1,6-dihydro-6-oxopyrimidin-2-yl)-4-n-propoxybenzamide]"
16,1.8,"CCCOc1ccc(C(=O)NCCS(=O)(=O)N(CC)CC)cc1-c1nc(CC)c(CC)c(=O)[nH]1 [Example 214, 3-(4,5-diethyl-1,6-dihydro-6-oxopyrimidin-2-yl)-N-(N,N-diethylaminosulfonylethyl)-4-n-propoxybenzamide]"
